Patent publication US20240360177A1, “PEPTIDES WITH ANTIMICROBIAL ACTIVITIES” (priority 2021, published 2024)
Values after ≈ are worked out from the molar mass of the structure shown. Read-outs that look alike come from different tables or passages of the source. Non-standard residues stand in square brackets, D forms with d. Residues, ends and D or L forms follow the SMILES beside them. hArg = N=C(N)NCCCC[C@H](N)C(=O)O; Ahp = NCCCCCCC(=O)O; Ava = NCCCCC(=O)O

Tests used:
C. krusei [1] = assay: microbe, parasite or virus in culture; settings: Pichia kudriavzevii, 24 h, read-out: MIC C. krusei
C. auris [2] = assay: microbe, parasite or virus in culture; settings: Candidozyma auris, 24 h, read-out: MIC C. auris
C. neoformans [3] = assay: microbe, parasite or virus in culture; settings: Cryptococcus neoformans, ATCC90112, 72 h, read-out: MIC C. neoformans
[4] = test system: Microsporum gypseum ATCC 14683; assay: microbe, parasite or virus in culture; settings: Nannizzia gypsea, ATCC14683, read-out: MIC Microsporum gypseum
C. glabrata [5] = assay: microbe, parasite or virus in culture; settings: Nakaseomyces glabratus, ATCC90030, 24 h, read-out: MIC C. glabrata
C. tropicalis [6] = assay: microbe, parasite or virus in culture; settings: Candida tropicalis, ATCC90874, 24 h, read-out: MIC C. tropicalis
C. parapsilosis [7] = assay: microbe, parasite or virus in culture; settings: Lodderomyces parapsilosis, ATCC22019, 24 h, read-out: MIC C. parapsilosis
C. gattii [8] = assay: microbe, parasite or virus in culture; settings: Cryptococcus gattii, 72 h, read-out: MIC C. gattii
C. albicans [9] = assay: microbe, parasite or virus in culture; settings: Candida albicans, ATCC90028, 24 h, read-out: MIC C. albicans
C. dubliniensis [10] = assay: microbe, parasite or virus in culture; settings: Candida dubliniensis, 24 h, read-out: MIC C. dubliniensis
[11] = test system: Epidermophyton floccosum ATCC 52066; assay: microbe, parasite or virus in culture; settings: ATCC52066, read-out: MIC Epidermophyton floccosum
[12] = test system: Trichophyton rubrum ATCC MYA-4438; assay: microbe, parasite or virus in culture; settings: read-out: MIC Trichophyton rubrum
HepG2 cells [13] = assay: Cytotoxicity in HepG2 cells, intracellular ATP assay; settings: Homo sapiens, HepG2, read-out: EC50 in HepG2 ATP assay, internal control, range across studies
[14] = test system: Trichophyton rubrum ATCC MYA-4438; settings: 4-6 days
C. glabrata [15] = test system: C. glabrata
C. dubliniensis [16] = settings: ATCC MYA-578; 24 hrs
C. krusei [17] = test system: C. krusei
C. auris [18] = test system: C. auris
C. neoformans [19] = settings: ATCC 90112; 72 hrs
C. albicans [20] = test system: C. albicans
[21] = test system: Epidermophyton floccosum ATCC 52066; settings: 4-6 days
HepG2 cells [22] = test system: HepG2 cells
C. gattii [23] = test system: C. gattii
[24] = test system: Microsporum gypseum ATCC 14683; settings: 4-6 days
C. tropicalis [25] = test system: C. tropicalis
Scedosporium spp. = settings: N = 2 strains; 72 hrs
human red blood cells = type: cell-based; settings: PBS, 37° C., 1 hr
Procedure: Hemolysis is a liability for many other cationic peptides which prevented their utility to treat systemic infections. The hemolytic potential of the peptides was tested using red blood cells collected from fresh human blood after centrifugation at room temperature and washed in phosphate buffered saline (pH 7.4) three times and then incubated in phosphate buffered saline (PBS) at 37° C. for 1 hr with the peptides at concentrations of 3-300 μg/mL. Triton-X100 was used as the positive control while the vehicle (PBS) was used as the negative control. Amphotericin B and melittin, both known to be hemolytic were used as reference compounds. Following incubation, the mixture was centrifuged at room temperature, and the supernatant was separated and analyzed for light absorbance at a single wavelength of 410 nm. The background absorbance reading from the negative control was subtracted from all samples. The Triton-X-100 sample was used to represent 100% lysis. All test compound and positive control samples were normalized to this value to determine the percent lysis caused by the test compounds and the positive controls at each concentration.

C. parapsilosis [26] = test system: C. parapsilosis
Candida spp. = settings: 15 strains (Table 10)
[27] = Cytotoxicity in HepG2 cells, intracellular ATP assay; settings: human, EC50 cytotoxicity in HepG2, intracellular ATP assay, Table 16; 18-22 hrs exposure without FBS
[28] = test system: Salmonella senftenberg CDC 127; type: cell-based
[29] = test system: Klebsiella pneumoniae ATCC 13883; type: cell-based
[30] = test system: Mycobacterium smegmatis ATCC 700084; type: cell-based; settings: ATCC 700084, 48 h
[31] = test system: Escherichia coli ATCC 25922; type: cell-based
[32] = test system: Enterococcus faecium ATCC 700221; settings: CAMHB
[33] = test system: Staphylococcus aureus ATCC 29213; type: cell-based
[34] = test system: Shigella sonnei MMX 10772; assay: Antibacterial broth microdilution MIC, Shigella sonnei; type: cell-based; settings: CAMHB
[35] = test system: Pseudomonas aeruginosa ATCC 27853; type: cell-based

OC(Cn1cncn1)(Cn1cncn1)c1ccc(F)cc1F [FLC, fluconazole]
MIC (C. krusei [1]): 8 µg/mL (≈ 26.1 µM) | MIC (C. auris [2]): > 32 µg/mL | MIC Range Fusarium spp. (Fusarium spp.; N = 3 strains, 48 hrs): >32 µg/mL | MIC (C. neoformans [3]): 4 µg/mL (≈ 13.1 µM) | MIC [4]: 2 µg/mL (≈ 6.53 µM) | MIC (C. glabrata [5]): 4 µg/mL (≈ 13.1 µM) | MIC (C. tropicalis [6]): 0.25 µg/mL (≈ 0.816 µM) | MIC (C. parapsilosis [7]): 2 µg/mL (≈ 6.53 µM) | MIC (C. gattii [8]): 8 µg/mL (≈ 26.1 µM) | MIC (C. albicans [9]): 0.25 µg/mL (≈ 0.816 µM) | MIC (C. dubliniensis [10]): 0.5 µg/mL (≈ 1.63 µM) | MIC [11]: 1 µg/mL (≈ 3.27 µM) | MIC [12]: 0.5 µg/mL (≈ 1.63 µM)

C=C(C)[C@H]1Cc2c(ccc3c2O[C@@H]2COc4cc(OC)c(OC)cc4[C@@H]2C3=O)O1 [rotenone, reference compound]
EC50 (HepG2 cells [13]): 129 to 594 nM

C[C@@H]1[C@H](O)[C@@H](C)/C=C/C=C/C=C/C=C/C=C/C=C/C=C/[C@H](O[C@@H]2O[C@H](C)[C@@H](O)[C@H](N)[C@@H]2O)C[C@@H]2O[C@](O)(C[C@@H](O)C[C@@H](O)[C@H](O)CC[C@@H](O)C[C@@H](O)CC(=O)O[C@H]1C)C[C@H](O)[C@H]2C(=O)O [AMB, amphotericin B, reference compound]
MIC Trichophyton rubrum [14]: ≤0.06 µg/mL | MIC C. glabrata (C. glabrata [15]; ATCC 90030, 24 hrs): 0.5 µg/mL (≈ 0.541 µM) | MIC C. dubliniensis (C. dubliniensis [16]): 0.25 µg/mL (≈ 0.271 µM) | MIC Range Fusarium spp. (Fusarium spp.; N = 3 strains, 48 hrs): 1 µg/mL (≈ 1.08 µM) | MIC C. krusei (C. krusei [17]; MMX 7135, 24 hrs): 0.5 µg/mL (≈ 0.541 µM) | MIC C. auris (C. auris [18]; CDC 386, 24 hrs): 1 µg/mL (≈ 1.08 µM) | MIC C. neoformans (C. neoformans [19]): 0.25 µg/mL (≈ 0.271 µM) | MIC C. albicans (C. albicans [20]; ATCC 90028 or 90029, 24 hrs): 0.5 µg/mL (≈ 0.541 µM) | MIC Epidermophyton floccosum [21]: 0.12 µg/mL (≈ 0.13 µM) | EC50 cytotoxicity in HepG2, positive controls across studies (HepG2 cells [22]): 5.79 to 14.13 µg/mL | MIC C. gattii (C. gattii [23]; ATCC MYA-4093, 72 hrs): 0.5 µg/mL (≈ 0.541 µM) | MIC Microsporum gypseum [24]: 0.5 µg/mL (≈ 0.541 µM) | MIC C. tropicalis (C. tropicalis [25]; ATCC 90874, 24 hrs): 0.5 µg/mL (≈ 0.541 µM) | MIC Range Scedosporium spp. (Scedosporium spp.): 1 to 2 µg/mL | EC50 hemolysis (50% lysis) (human red blood cells): 6.95 µg/mL (≈ 7.52 µM) | MIC C. parapsilosis (C. parapsilosis [26]; ATCC 22019, 24 hrs): 0.25 µg/mL (≈ 0.271 µM)

N=C(N)NCCCC[C@H](NC(=O)[C@@H](CCCNC(=N)N)NC(=O)[C@H](CCCCNC(=N)N)NC(=O)[C@@H](CCCNC(=N)N)NC(=O)[C@@H]1CCCN1C(=O)[C@H](CCCCNC(=N)N)NC(=O)[C@@H](CCCNC(=N)N)NC(=O)[C@H](CCCCNC(=N)N)NC(=O)[C@@H](CCCNC(=N)N)NC(=O)[C@@H]1CCCN1C(=O)[C@@H](CCCNC(=N)N)NC(=O)[C@H](CCCCNC(=N)N)NC(=O)[C@@H](CCCNC(=N)N)NC(=O)[C@@H]1CCCN1C(=O)[C@@H](CCCNC(=N)N)NC(=O)[C@H](CCCCNC(=N)N)NC(=O)[C@H](N)CCCNC(=N)N)C(N)=O [SEQ ID NO: 88, r(Har)r-P-r(Har)r-P-r(Har)r(Har)-P-r(Har)r(Har)-NH2] (H-[dR][hArg][dR]P[dR][hArg][dR]P[dR][hArg][dR][hArg]P[dR][hArg][dR][hArg]-NH2)
MIC50 Candida species (Candida spp.): 0.5 µg/mL (≈ 0.194 µM) | MIC90 Candida species (Candida spp.): 1 µg/mL (≈ 0.388 µM) | MIC C. glabrata (C. glabrata [15]; ATCC 90030, 24 hrs): 0.5 µg/mL (≈ 0.194 µM) | MIC C. dubliniensis (C. dubliniensis [16]): 0.5 µg/mL (≈ 0.194 µM) | MIC C. krusei (C. krusei [17]; MMX 7135, 24 hrs): 0.5 µg/mL (≈ 0.194 µM) | MIC C. auris (C. auris [18]; CDC 386, 24 hrs): 0.5 µg/mL (≈ 0.194 µM) | MIC C. neoformans (C. neoformans [19]): 0.5 µg/mL (≈ 0.194 µM) | EC50 [27]: > 300 µg/mL | MIC C. albicans (C. albicans [20]; ATCC 90028 or 90029, 24 hrs): 0.5 µg/mL (≈ 0.194 µM) | MIC C. gattii (C. gattii [23]; ATCC MYA-4093, 72 hrs): 0.5 µg/mL (≈ 0.194 µM) | MIC C. tropicalis (C. tropicalis [25]; ATCC 90874, 24 hrs): 0.5 µg/mL (≈ 0.194 µM) | MIC C. parapsilosis (C. parapsilosis [26]; ATCC 22019, 24 hrs): 0.25 µg/mL (≈ 0.0969 µM)

N=C(N)NCCC[C@H](NC(=O)[C@@H](CCCNC(=N)N)NC(=O)[C@H](CCCNC(=N)N)NC(=O)[C@@H](CCCNC(=N)N)NC(=O)CCCCNC(=O)[C@H](CCCNC(=N)N)NC(=O)[C@@H](CCCNC(=N)N)NC(=O)[C@H](CCCNC(=N)N)NC(=O)[C@@H](CCCNC(=N)N)NC(=O)CCCCNC(=O)[C@@H](CCCNC(=N)N)NC(=O)[C@H](CCCNC(=N)N)NC(=O)[C@@H](CCCNC(=N)N)NC(=O)CCCCCCNC(=O)[C@@H](CCCNC(=N)N)NC(=O)[C@H](CCCNC(=N)N)NC(=O)[C@@H](CCCNC(=N)N)NC(=O)[C@@H](N)CS)C(=O)O [SEQ ID NO: 6, Cys-rRr-(Ahp)-rRr-(Ava)-rRrR-(Ava)-rRrR] (H-C[dR]R[dR][Ahp][dR]R[dR][Ava][dR]R[dR]R[Ava][dR]R[dR]R-OH)
MIC Salmonella senftenberg [28]: 16 µg/mL (≈ 6.08 µM) | MIC C. glabrata (C. glabrata [15]; 24 h): 0.5 µg/mL (≈ 0.19 µM) | MIC Klebsiella pneumoniae [29]: 16 µg/mL (≈ 6.08 µM) | MIC Range Fusarium spp. (Fusarium spp.; 48 h): 0.25 to 0.5 µg/mL | MIC C. krusei (C. krusei [17]; 24 h): 8 µg/mL (≈ 3.04 µM) | MIC C. auris (C. auris [18]; 24 h): 4 µg/mL (≈ 1.52 µM) | MIC Mycobacterium smegmatis [30]: 1 µg/mL (≈ 0.38 µM) | MIC Escherichia coli [31]: 16 µg/mL (≈ 6.08 µM) | MIC C. albicans (C. albicans [20]; 24 h): 8 µg/mL (≈ 3.04 µM) | MIC Enterococcus faecium [32]: 16 µg/mL (≈ 6.08 µM) | MIC C. gattii (C. gattii [23]; 72 h): 1 µg/mL (≈ 0.38 µM) | MIC Staphylococcus aureus [33]: 8 µg/mL (≈ 3.04 µM) | MIC C. tropicalis (C. tropicalis [25]; 24 h): 1 µg/mL (≈ 0.38 µM) | MIC Shigella sonnei [34]: 16 µg/mL (≈ 6.08 µM) | MIC Pseudomonas aeruginosa [35]: 16 µg/mL (≈ 6.08 µM) | MIC C. parapsilosis (C. parapsilosis [26]; 24 h): 2 µg/mL (≈ 0.76 µM)
